Data published in US12187709B2 (Genentech, Inc., priority 2021, dated 2025).

What was measured:
[1] = target: Human Cbl-b (residues 40-426) (Homo sapiens (Human), UniProt Q13191); assay: Cbl-b SPR assay; type: binding; details: for Fold of selectivity: C-cbl SPR Kd vs Cbl-b SPR Kd; for Kd: SPR, 20° C.
Procedure, shortened: (§1)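 Binding was measured by SPR and fitted to a 1:1 model from multi-cycle kinetics with double referencing, 6 concentrations in 2-fold dilution. Alternatively, single-cycle titrations up to 500 nM (120 s contact) were fitted with kd fixed from a single-exponential fit of chaser-measured % compound bound versus time.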

[2] = target: c-Cbl (residues 47-435) (Homo sapiens (Human), UniProt P22681); assay: c-Cbl SPR assay; type: binding; details: 20° C.
Chain of c-Cbl (residues 47-435) (P22681 47-435): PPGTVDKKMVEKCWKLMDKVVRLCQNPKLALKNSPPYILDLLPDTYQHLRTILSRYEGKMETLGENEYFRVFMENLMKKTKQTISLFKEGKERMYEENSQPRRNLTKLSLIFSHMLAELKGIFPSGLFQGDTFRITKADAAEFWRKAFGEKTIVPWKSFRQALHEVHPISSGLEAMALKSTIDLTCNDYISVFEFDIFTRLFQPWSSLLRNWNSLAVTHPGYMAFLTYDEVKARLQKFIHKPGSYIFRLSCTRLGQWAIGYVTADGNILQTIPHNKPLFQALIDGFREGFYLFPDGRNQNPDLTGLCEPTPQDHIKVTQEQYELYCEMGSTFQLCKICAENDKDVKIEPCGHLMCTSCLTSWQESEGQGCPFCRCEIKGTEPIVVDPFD
Procedure, shortened: as §1

[3] = target: Cbl-b (Homo sapiens (Human), UniProt Q13191); assay: Cbl-b LCK Ub TR-FRET assay (Cbl-b Lck HTRF); type: biochemical; details: for IC50: Cbl-b LCK Ub TR-FRET; for fold-selectivity (Cbl-b over C-cbl) / (fold-selectivity) Cbl-b and C-Cbl Selectivity: ratio C-cbl Lck HTRF IC50 / Cbl-b Lck HTRF IC50
Chain of Cbl-b (Q13191 40-426): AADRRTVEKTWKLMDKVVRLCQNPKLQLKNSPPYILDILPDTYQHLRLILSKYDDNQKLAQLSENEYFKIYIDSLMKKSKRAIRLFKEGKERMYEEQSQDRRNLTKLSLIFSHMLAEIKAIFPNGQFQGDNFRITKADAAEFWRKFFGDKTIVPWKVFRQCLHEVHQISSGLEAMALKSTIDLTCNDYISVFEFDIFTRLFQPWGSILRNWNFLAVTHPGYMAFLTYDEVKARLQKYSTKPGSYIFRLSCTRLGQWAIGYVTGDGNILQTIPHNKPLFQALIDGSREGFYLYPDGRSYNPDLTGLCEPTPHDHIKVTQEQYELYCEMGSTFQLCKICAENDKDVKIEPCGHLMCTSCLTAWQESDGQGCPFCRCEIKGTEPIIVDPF
Procedure, shortened: (§2)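 Signal is read once the detection mix has stood 20 min at ambient temperature. Curves are anchored by DMSO as maximum and by omission of LCK as minimum.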

[4] = target: c-Cbl (Homo sapiens (Human), UniProt P22681); assay: C-Cbl LCK Ub TR-FRET assay (C-cbl Lck HTRF); type: biochemical
Chain of c-Cbl (P22681 47-435): as the sequence (P22681 47-435) above
Procedure, shortened: as §2

Chain of Human Cbl-b (residues 40-426) (Q13191 40-426): as the sequence (Q13191 40-426) above

Structure (SMILES) | Fold of selectivity [1] | Kd [1] | Kd [2] | IC50 [3] | fold-selectivity (Cbl-b over C-cbl) [3] | IC50 [4] | IC50 ([3]; Example 121) | (fold-selectivity) Cbl-b and C-Cbl Selectivity [3]
Cn1cnnc1[C@]1(c2cccc(N3Cc4c(cc(CNC5(C)CCC5)cc4C(F)(F)F)C3=O)c2)C[C@@H](C)C1 [Compound 35, 2-(3-((1r,3r)-3-methyl-1-(4-methyl-4H-1,2,4-triazol-3-yl)cyclobutyl)phenyl)-6-(((1-methylcyclobutyl)amino)methyl)-4-(trifluoromethyl)isoindolin-1-one] | 3.4× | 0.5 nM | 1.7 nM | 9.1 nM | (0.97x) | 8.8 nM | – | –
Cc1cc([C@@H](c2nncn2C)C2COC2)cc(N2Cc3c(cc(CNC4(C)CCC4)cc3C(F)(F)F)C2=O)c1 (single isomer, unassigned) [Compound 333] | 2.2× | 26 nM | 56 nM | 39 nM | 1.0x | 41 nM | – | –
Cn1cnnc1[C@@H](c1cccc(N2Cc3c(cc(CNC4(C)CCC4)cc3C(F)(F)F)C2=O)c1)[C@H]1C[C@H](OC(F)(F)F)C1 (single isomer, unassigned) [Compound 395] | 7.1× | 130 nM | 920 nM | 75 nM | 2.1x | 160 nM | – | –
Cn1cnnc1[C@H](c1cccc(N2Cc3c(cc(CNC4(C)CCC4)cc3C(F)(F)F)C2=O)c1)C1CC(OCC(F)F)C1 (single isomer, unassigned) [Compound 262] | 12× | 13 nM | 150 nM | 38 nM | 7.1x | 270 nM | – | –
CO[C@H]1C[C@](c2cccc(N3Cc4c(cc(CNC5CC(C(F)F)C5)cc4C(F)(F)F)C3=O)c2)(c2nncn2C)C1 (stereo partly drawn) [Compound 494, 6-(((3-(difluoromethyl)cyclobutyl)amino)methyl)-2-(3-((1r,3r)-3-methoxy-1-(4-methyl-4H-1,2,4-triazol-3-yl)cyclobutyl)phenyl)-4-(trifluoromethyl)isoindolin-1-one] | 11× | 1.8 nM | 20 nM | – | – | 25 nM | 8.3 nM | 3.1x
CO[C@H]1C[C@](c2cccc(N3Cc4c(cc(CNCCOC(F)F)cc4C(F)(F)F)C3=O)c2)(c2nncn2C)C1 [Compound 491, 6-(((2-(difluoromethoxy)ethyl)amino)methyl)-2-(3-((1r,3r)-3-methoxy-1-(4-methyl-4H-1,2,4-triazol-3-yl)cyclobutyl)phenyl)-4-(trifluoromethyl)isoindolin-1-one] | 17× | 2.9 nM | 48 nM | – | – | 36 nM | 8.4 nM | 4.3x
CC(C)[C@H]1CN(C)CCN1Cc1cc2c(c(C(F)(F)F)c1)CN(c1cc([C@]3(c4nncn4C)C[C@H](C)C3)cc(NC3CCCC3)n1)C2=O (single isomer, unassigned) [Compound 75] | 7.7× | 31 nM | 230 nM | 17 nM | (1.3x) | 22 nM | – | –
Cn1cnnc1[C@@H](c1cccc(N2Cc3c(cc(CNC4(C)CCC4)cc3C(F)(F)F)C2=O)c1)C1COC1 (single isomer, unassigned) [Compound 164] | 7.0× | 1.9 nM | 14 nM | 8.9 nM | 2.0x | 18 nM | – | –
COC[C@@H]1CC1(c1cccc(N2Cc3c(cc(CNC4(C)CCC4)cc3C(F)(F)F)C2=O)c1)c1nncn1C (single isomer, unassigned) [Compound 166] | 5.3× | 710 nM | 3800 nM | 1900 nM | 3.8x | 7200 nM | – | –
Cn1cnnc1[C@]1(c2cccc(N3Cc4c(cc(CNC5(C)CCC5)cc4C(F)(F)F)C3=O)c2)C[C@@H](CO)C1.O=CO [Compound 100, 2-(3-((1r,3r)-3-(hydroxymethyl)-1-(4-methyl-4H-1,2,4-triazol-3-yl)cyclobutyl)phenyl)-6-(((1-methylcyclobutyl)amino)methyl)-4-(trifluoromethyl)isoindolin-1-one formate] | 12× | 5.8 nM | 72 nM | 25 nM | 3.5x | 86 nM | – | –
CCO[C@H]1C[C@](c2cccc(N3Cc4c(cc(CNC5(C)CCC5)cc4C(F)(F)F)C3=O)c2)(c2nncn2C)C1 [Compound 179, 2-(3-((1r,3r)-3-ethoxy-1-(4-methyl-4H-1,2,4-triazol-3-yl)cyclobutyl)phenyl)-6-(((1-methylcyclobutyl)amino)methyl)-4-(trifluoromethyl)isoindolin-1-one] | 13× | 4.6 nM | 58 nM | 30 nM | 3.4x | 110 nM | – | –
CO[C@H]1C[C@](c2cccc(N3Cc4c(cc(CNCC(C)C)cc4C(F)(F)F)C3=O)c2)(c2nncn2C)C1 [Compound 421, 6-((isobutylamino)methyl)-2-(3-((1r,3r)-3-methoxy-1-(4-methyl-4H-1,2,4-triazol-3-yl)cyclobutyl)phenyl)-4-(trifluoromethyl)isoindolin-1-one] | 14× | 1.7 nM | 24 nM | – | – | 17 nM | 6.5 nM | 2.6x
Cn1cnnc1[C@]1(c2cc(NC3CC(F)(F)C3)nc(N3Cc4c(cc(CNC5(C)CCC5)cc4C(F)(F)F)C3=O)c2)C[C@@H](C)C1 [Compound 48, 2-(6-((3,3-difluorocyclobutyl)amino)-4-((1r,3r)-3-methyl-1-(4-methyl-4H-1,2,4-triazol-3-yl)cyclobutyl)pyridin-2-yl)-6-(((1-methylcyclobutyl)amino)methyl)-4-(trifluoromethyl)isoindolin-1-one] | 3.0× | 3.8 nM | 11 nM | 10 nM | (1.5x) | 15 nM | – | –
Cn1cnnc1[C@]1(c2cccc(N3Cc4c(cc(CNC5(C)CCC5)cc4C(F)(F)F)C3=O)c2)C[C@@](O)(C(F)F)C1 [Compound 405, 2-(3-((1s,3s)-3-(difluoromethyl)-3-hydroxy-1-(4-methyl-4H-1,2,4-triazol-3-yl)cyclobutyl)phenyl)-6-(((1-methylcyclobutyl)amino)methyl)-4-(trifluoromethyl)isoindolin-1-one] | 7.7× | 9.4 nM | 75 nM | – | – | 77 nM | 15 nM | 5.3x
Cn1cnnc1[C@]1(c2cccc(N3Cc4c(cc(CNC5(C)CCC5)cc4C(F)(F)F)C3=O)c2)C[C@@H]([S@+](C)[O-])C1 (single isomer, unassigned) [Compound 160] | 0.76× | 1300 nM | 1000 nM | 1300 nM | 3.9x | 5300 nM | – | –
Cn1cnnc1C(F)(c1cccc(N2Cc3c(cc(CNC4(C)CCC4)cc3C(F)(F)F)C2=O)c1)C1(F)COC1 (stereo in doubt) [Compound 404, (R)-2-(3-(fluoro(3-fluorooxetan-3-yl)(4-methyl-4H-1,2,4-triazol-3-yl)methyl)phenyl)-6-(((1-methylcyclobutyl)amino)methyl)-4-(trifluoromethyl)isoindolin-1-one] | 2.6× | 0.85 nM | 2.2 nM | – | – | 4.9 nM | 4.8 nM | 1.0x
Cn1cnnc1C1(c2cccc(N3Cc4c(cc(CNC5(C)CCC5)cc4C(F)(F)F)C3=O)c2)CN(S(C)(=O)=O)C1 [Compound 113, 2-(3-(3-(4-methyl-4H-1,2,4-triazol-3-yl)-1-(methylsulfonyl)azetidin-3-yl)phenyl)-6-(((1-methylcyclobutyl)amino)methyl)-4-(trifluoromethyl)isoindolin-1-one] | 13× | 2700 nM | 34000 nM | 3500 nM | 5.3x | 18000 nM | – | –
CO[C@](c1cccc(N2Cc3c(cc(CNC4(C)CCC4)cc3C(F)(F)F)C2=O)c1)(c1nncn1C)C1CCC1 (single isomer, unassigned) [Compound 119] | 3.0× | 780 nM | 2300 nM | 3600 nM | 3.6x | 13000 nM | – | –
C[C@@H](c1cccc(N2Cc3c(cc(CNC4(C)CCC4)cc3C(F)(F)F)C2=O)c1)c1nncn1C (single isomer, unassigned) [Compound 171, 2-(3-(1-(4-methyl-4H-1,2,4-triazol-3-yl)ethyl)phenyl)-6-(((1-methylcyclobutyl)amino)methyl)-4-(trifluoromethyl)isoindolin-1-one] | 2.1× | 800 nM | 1700 nM | 1100 nM | 2.0x | 2300 nM | – | –
